Results published in PMC10745346, “A Robust and Efficient FRET-Based Assay for Cannabinoid Receptor Ligands Discovery” (Molecules, 2023).
Where two headings read alike, the source gives them in different places.

Experiments:
[1] = target: T1, SNAP-CB2R (Homo sapiens, UniProt P34972); experiment: Tag-lite competition binding assay with CELT-335, living cells expressing SNAP-CB2R
T1 construct: host or cells: HEK-293 cells, transient transfection (lipofectamine 2000), living adherent cells

[2] = target: T2, human CB1R (Homo sapiens, UniProt P21554); experiment: Competition radioligand binding assay, [3H]-CP55940, human CB1R
T2 construct: expressed in transfected cells
Method: CB1R competition binding experiments were carried out by employing cell membranes obtained from a stable CHO-hCB1 cell line. Cell membranes were prepared by washing the cells twice with phosphate buffered saline (PBS) and scraped from the plate in lysis buffer (5 mM Tris-HCl, 2 mM EDTA, pH = 7.4). Cell suspension was homogenized and centrifuged at 1000× g for 10 min at 4 °C. Supernatant was isolated and centrifuged at 48,000× g for 1 h at 4 °C. The membrane’s pellet was suspended in a storage buffer (50 mM Tris-HCl, pH = 7.4). The protein concentration of the cell membrane suspension was 4292 µg/mL.
Radioligand binding assays were performed in a polypropylene 96-well plate containing 20 μg of cell membranes, 1.25 nM [^3H]-CP55940 (101 Ci/mmol, 1 mCi/mL, Perkin Elmer NET1051250UC), and the compounds under study. Non-specific binding was determined in the presence of Surinabant 10 μM. The reaction mixture (Vt: 250 μL/well) was incubated at 30 °C for 60 min, 200 μL was transferred to a GF/B 96-well plate (Millipore, Madrid, Spain) and treated with binding buffer (50 mM Tris-HCl, 5 mM MgCl2, 1 mM EDTA, 0.5% BSA. pH: 7.4); afterward, it was filtered and washed four times with 250 μL wash buffer (50 mM Tris-HCl, 5 mM MgCl2, 1 mM EDTA, 0.5% BSA. pH: 7.4), before its measurement in a microplate beta scintillation counter (Microbeta Trilux, PerkinElmer, Madrid, Spain).

[3] = target: T3, human CB2R (Homo sapiens, UniProt P34972); experiment: Competition radioligand binding assay, [3H]-CP55940, human CB2R
T3 construct: expressed in transfected cells
Method: CB2R competition binding experiments were carried out by employing cell membranes obtained from a stable HEK-hCB2 cell line. Cell membranes were prepared by washing the cells twice in PBS and scraped from the plate in PBS. Cell suspension was centrifuged at 1500× g for 3 min at 4 °C. Cell pellet was suspended in lysis buffer (15 mM Tris-HCl, 2 mM MgCl2, 0.3 mM EDTA, 1 mM EGTA, pH = 7.5), homogenized, and centrifuged at 40,000× g for 25 min at 4 °C. Pellet was suspended in lysis buffer and centrifuged at 40,000× g for 1 h at 4 °C. The membrane’s pellet was suspended in storage buffer (7.5 mM Tris-HCl, 12.5 mM MgCl2, 0.3 mM EDTA, 1 mM EGTA, 250 mM sucrose, pH = 7.5). The protein concentration of the cell membrane suspension was 4781 µg/mL.
Radioligand binding assays were performed in a polypropylene 96-well plate containing 30 μg of membranes, […] (101 Ci/mmol, 1 mCi/mL, Perkin Elmer NET1051250UC), and the compounds under study. Non-specific binding was determined in the presence of GW405833 10 μM (Sigma G1421). The reaction mixture (Vt: 250 μL/well) was incubated at 30 °C for 90 min, 200 μL was transferred to GF/C 96-well plate (Millipore, Madrid, Spain), pre-treated with 0.5% of PEI, and treated with binding buffer (50mM Tris-HCl, 5mM MgCl2, 2.5 mM EGTA, 0.1% BSA. pH: 7.4); afterward, it was filtered and washed four times with 250 μL wash buffer (50mM Tris-HCl, 5mM MgCl2, 2.5 mM EGTA, 1% BSA. pH: 7.4), before its measurement in a microplate beta scintillation counter (Microbeta Trilux, PerkinElmer, Madrid, Spain).

[4] = target: T4, SNAP-CB1R (Homo sapiens, UniProt P21554); experiment: cell-based; assay type: binding
T4 construct: expressed in transfected cells; host or cells: HEK-293T cells, transient transfection (PEI), living cells

[5] = target: hCB2R; settings: literature value ref 32; cited from earlier work
[6] = target: CB1 receptor; settings: literature value ref 31; cited from earlier work
[7] = 100 nM CELT-335, test compound 0-10 μM, mean ± SEM, read-out: pKi CB1 Tag-Lite Binding (CELT-335) (converted)

T3 sequence (P34972 whole entry): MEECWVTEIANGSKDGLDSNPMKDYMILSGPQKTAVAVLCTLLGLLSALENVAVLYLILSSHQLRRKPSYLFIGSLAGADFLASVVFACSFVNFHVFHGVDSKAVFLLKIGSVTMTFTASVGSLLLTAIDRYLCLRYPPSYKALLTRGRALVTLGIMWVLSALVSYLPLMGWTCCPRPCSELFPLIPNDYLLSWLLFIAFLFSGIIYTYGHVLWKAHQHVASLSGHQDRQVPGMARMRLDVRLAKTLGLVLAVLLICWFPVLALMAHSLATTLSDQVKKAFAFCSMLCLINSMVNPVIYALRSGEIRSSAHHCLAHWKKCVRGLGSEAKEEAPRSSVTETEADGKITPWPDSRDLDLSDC
T1 sequence (P34972 whole entry): as above
T2 sequence (P21554 whole entry): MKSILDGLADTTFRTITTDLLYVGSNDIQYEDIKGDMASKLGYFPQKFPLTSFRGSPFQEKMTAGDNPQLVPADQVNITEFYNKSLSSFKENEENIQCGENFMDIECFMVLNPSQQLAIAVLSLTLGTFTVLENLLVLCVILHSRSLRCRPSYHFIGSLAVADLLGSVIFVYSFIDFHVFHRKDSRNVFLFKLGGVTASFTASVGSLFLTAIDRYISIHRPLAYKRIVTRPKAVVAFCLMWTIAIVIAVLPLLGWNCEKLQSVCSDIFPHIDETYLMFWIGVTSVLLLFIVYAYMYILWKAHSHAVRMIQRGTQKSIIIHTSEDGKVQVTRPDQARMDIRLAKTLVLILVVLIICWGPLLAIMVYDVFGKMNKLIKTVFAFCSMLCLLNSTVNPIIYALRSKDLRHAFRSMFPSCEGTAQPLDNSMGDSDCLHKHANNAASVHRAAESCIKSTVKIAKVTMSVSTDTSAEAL
T4 sequence (P21554 whole entry): as above

Row | Structure (SMILES) | Ki [1] | Ki [2] | Ki [3] | Ki [4, 7] | pKi CB2 Radioligand Binding [5] | pKi CB2 Tag-Lite Binding (CELT-335) [1] | Ki [4] | pKi CB1 Radioligand Binding [6] | Ki ([2]; displacement of specific [3H]-CP55940 binding, mean ± SEM, read-out: pKi CB1 Radioligand Binding (converted)) | Ki ([3]; displacement of specific [3H]-CP55940 binding, mean ± SEM, read-out: pKi CB2 Radioligand Binding (converted))
1 | CC(C)C(NC(=O)c1cn(Cc2ccc(F)cc2)c2ccccc12)C(N)=O (stereo not drawn) [AB-FUBICA] | 36.3 nM | 3.6 nM | 28.8 nM |  |  |  |  |  |  | 
2 | COC(=O)[C@@H](NC(=O)c1cn(Cc2ccc(F)cc2)c2ccccc12)C(C)C [AMB-FUBICA] | 21.9 nM | 47.9 nM | 20 nM | 117 nM |  |  |  |  |  | 
3 | CCCCCn1cc(C(=O)NC23CC4CC(CC(C4)C2)C3)c(=O)c2ccccc21 [Adamantyl-quinolone] |  | 49 nM |  |  | 7.78 [32] | 8.29 ± 0.11 | 79.4 nM |  |  | 
4 | COC(=O)C(NC(=O)c1cn(CC2CCCCC2)c2ccccc12)C(C)(C)C (stereo not drawn) [MDMB-CHMICA] | 2.34 nM |  |  | 8.13 nM |  |  |  | 9.38 [31] |  | 
5 | Cc1c(C(=O)NCc2cccnc2)nn(-c2ccc(Cl)cc2Cl)c1-c1ccc(Cl)cc1 [MJ15] | 324 nM |  |  | 36.3 nM |  |  |  |  | 63.1 nM | 692 nM
